{"source": "ChEMBL document CHEMBL1127742", "about": "“Compass: predicting biological activities from molecular surface properties. Performance comparisons on a steroid benchmark” (J Med Chem, 1994)", "data": [{"biological_target": "T1, Sex hormone-binding globulin (Homo sapiens) (UniProt P04278)", "T1 sequence (whole entry)": "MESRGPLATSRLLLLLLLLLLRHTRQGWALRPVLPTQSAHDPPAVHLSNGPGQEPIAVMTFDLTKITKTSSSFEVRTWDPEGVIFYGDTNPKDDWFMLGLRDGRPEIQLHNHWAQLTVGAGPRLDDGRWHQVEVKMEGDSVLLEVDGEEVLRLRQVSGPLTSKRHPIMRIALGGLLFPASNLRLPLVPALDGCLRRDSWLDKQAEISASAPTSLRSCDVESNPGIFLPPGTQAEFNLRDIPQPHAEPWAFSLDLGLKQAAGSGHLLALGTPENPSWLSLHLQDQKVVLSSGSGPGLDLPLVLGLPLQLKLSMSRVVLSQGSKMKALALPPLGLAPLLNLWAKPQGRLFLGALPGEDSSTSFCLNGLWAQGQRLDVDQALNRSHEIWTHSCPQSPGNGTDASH", "description": "Binding affinity against transport protein testosterone binding globulin.", "values": [{"molecule": "C[C@]12CCC(=O)C=C1CC[C@@H]1[C@@H]2[C@@H](O)C[C@@]2(C)[C@H]1CC[C@]2(O)C(=O)CO", "Log 1/K": 6.2}, {"molecule": "C[C@]12CC[C@H]3[C@@H](CCC4=CC(=O)CC[C@@]43C)[C@@H]1CC[C@@H]2O", "Log 1/K": 9.2}, {"molecule": "C[C@]12CCC(=O)C[C@@H]1CC[C@@H]1[C@@H]2CC[C@]2(C)[C@@H](O)CC[C@@H]12", "Log 1/K": 9.74}, {"molecule": "C[C@]12CCC(=O)C=C1CC[C@@H]1[C@@H]2CC[C@]2(C)C(=O)CC[C@@H]12", "Log 1/K": 7.46}, {"molecule": "C[C@]12CCC(=O)C=C1CC[C@@H]1[C@@H]2CC[C@@]2(C)[C@H]1CC[C@]2(O)C(=O)CO", "Log 1/K": 7.2}, {"molecule": "C[C@]12C[C@H](O)[C@H]3[C@@H](CCC4=CC(=O)CC[C@@]43C)[C@@H]1CC[C@@H]2C(=O)CO", "Log 1/K": 6.34}, {"molecule": "C[C@]12CC[C@@H](O)C[C@@H]1CC[C@@H]1[C@@H]2CC[C@]2(C)C(=O)CC[C@@H]12", "Log 1/K": 7.15}, {"molecule": "C[C@]12CC[C@H](O)C[C@@H]1CC[C@@H]1[C@@H]2CC[C@]2(C)[C@@H](O)CC[C@@H]12", "Log 1/K": 9.11}, {"molecule": "C[C@]12CC[C@H](O)CC1=CCC1C2CC[C@]2(C)C(=O)CCC12", "note": "(stereo partly drawn)", "Log 1/K": 7.82}, {"molecule": "C[C@]12CC[C@@H](O)C[C@H]1CC[C@@H]1[C@@H]2CC[C@]2(C)C(=O)CC[C@@H]12", "Log 1/K": 6.15}, {"molecule": "C[C@]12CCC(=O)C=C1CC[C@@H]1[C@@H]2C(=O)C[C@@]2(C)[C@H]1CC[C@]2(O)C(=O)CO", "Log 1/K": 6.43}, {"molecule": "CC(=O)[C@H]1CC[C@H]2[C@@H]3CCC4=CC(=O)CC[C@]4(C)[C@H]3CC[C@]12C", "Log 1/K": 6.94}, {"molecule": "CC(=O)[C@@]1(O)CC[C@H]2[C@@H]3CCC4=CC(=O)CC[C@]4(C)[C@H]3CC[C@@]21C", "Log 1/K": 7}, {"molecule": "CC(=O)[C@@]1(O)CC[C@H]2[C@@H]3CC=C4C[C@@H](O)CC[C@]4(C)[C@H]3CC[C@@]21C", "Log 1/K": 6.36}, {"molecule": "CC(=O)[C@H]1CC[C@H]2[C@@H]3CC=C4C[C@@H](O)CC[C@]4(C)[C@H]3CC[C@]12C", "Log 1/K": 7.15}, {"molecule": "C[C@]12CC[C@@H]3c4ccc(O)cc4CC[C@H]3[C@@H]1C[C@@H](O)[C@@H]2O", "Log 1/K": 6.63}, {"molecule": "C[C@]12CCC(=O)C=C1CCC1C3CC[C@H](C(=O)CO)[C@@]34C[C@H](OC4O)C12", "note": "(stereo partly drawn)", "Log 1/K": 5.32}, {"molecule": "C[C@]12CC[C@H]3[C@@H](CCC4=CC(=O)CC[C@@]43C)[C@@H]1CC[C@@H]2C(=O)CO", "Log 1/K": 7.38}]}]}
